Experimental data from US20180153840A1, “THE COMPOSITIONS OF GLYCEROL AND /OR NON-TOXIC AMINO ACIDS FOR INHIBITING AND DESTROYING BIOFILM, INCLUDING RELATED METHODS” (priority 2015, published 2018).
Read-outs that look alike come from different tables or passages of the source.

Assays:
[1] = Description: (§1) For fungal biofilm assays, all solutions were prepared in RPMI 1640 medium. All bacterial biofilm solutions were prepared in Trypic Soy Broth (TSB), supplemented with 1% glucose (henceforth referred to as TSB-G). All subsequent procedures were performed in a manner that maintained sterility. A solution of each amino acid to be tested was prepared in weight to volume concentrations ranging from 0.1-5.0%. Amino acids were also tested in combinations. Compound solutions were homogenized with gentle agitation in the dark (4° C., 24 hours) before use.
(§2) All biofilm assays were performed using 384-well non-tissue culture treated polystyrene plates. The fungal species tested are as follows: Candida albicans, Candida guilliermondii Candida parapsilosis, Candida glabrata, Candida tropicalis and Candida dubliniensis. The bacterial species tested are as follows: Staphylococcus aureus (standard wild type and methicillin-resistant strain USA300), Escherichia coli, Pseudomonas aeruginosa and Staphylococcus epidermidis.

[2] = test system: bacterial and fungal biofilms; test: In vitro testing on bacterial and fungal biofilms; type: cell-based; conditions: for effect on bacterial and fungal biofilm (in words): in vitro
Description: as §1, §2
(§3) Fungal strains were streaked on Yeast Peptone Dextrose (YPD) agar plates and incubated at 30° C. for 48 hours. A single colony from each strain to be tested was inoculated into YPD broth and grown for 12 hours, at 30° C., shaking at 225 rpm. For the fungal biofilm inhibition assay, 1 μl of saturated overnight cell culture was added to either 80 μL of RPMI-1640 or RPMI-1640 supplemented with the amino acid compound solution to be tested, in a 384-well plate. The cells were allowed to adhere to the plate for 90 minutes at 37° C. with shaking (350 rpm). Loosely bound cells were washed once with phosphate buffered saline (PBS) and 80 ul of RPMI-1640, or RPMI-1640 supplemented with the amino acid compound solution was added to the plate. The plate was further incubated for 24 hours at 37° C. with shaking (350 rpm). Media was carefully aspirated and the biofilm was measured for fungal cell concentration by optical density at 600 nm. Twelve replicates were performed for each tested condition and the reported values were normalized to the control (RPMI-1640 media only).
(§4) For the fungal biofilm disruption assays, 80 μL of RPMI-1640 was added to the plate, along with 1 μL of overnight cell culture. The cells were allowed to adhere to the plate for 90 minutes at 37° C. with shaking (350 rpm). Loosely bound cells were washed once with PBS and 80 μL of RPMI-1640 was added to the plate. The plate was further incubated for 24 hours at 37° C. with shaking (350 rpm). Media was carefully aspirated from the mature biofilm and 80 μL of RPMI-1640, or RPMI-1640 supplemented with the amino acid compound solution to be tested, was gently added to the plate. The plate was further incubated for 24 hours at 37° C. with shaking (350 rpm). Media was carefully aspirated and the biofilm was measured for fungal cell concentration by optical density at 600 nm. Twelve replicates were performed for each tested condition and the reported values are normalized to the control (RPMI-1640 media only).
(§5) Bacterial strains were streaked on Blood Agar plates (5% sheep blood in Tryptic Soy Broth) and incubated at 37° C. for 24 hours. A single colony from each strain to be tested was inoculated in a TSB broth and grown for 12 hours, at 37° C. with shaking (225 rpm).
(§6) For the bacterial biofilm inhibition assays, 1 μL of saturated overnight cell culture was added to either 80 μL of TSB-G, or TSB-G supplemented with the amino acid compound solution to be tested, in a 384-well plate. The cells were allowed to adhere to the plate for 60 minutes at 37° C. without shaking. The media was carefully aspirated and 80 μL of TSB-G, or TSB-G supplemented with the amino acid compound solution was added to the plate. The plate was further incubated for 24 hours at 37° C. without shaking. Media was carefully aspirated and the biofilm was measured for bacterial cell concentration by optical density at 600 nm.

fungal biofilms = test: Fungal biofilm assays (sustained inhibition and/or disruption); type: cell-based, Candida albicans; conditions: at least one of the two assays (sustained inhibition and/or disruption); for anti-biofilm properties against fungal biofilms: administered individually
Description: as §1, §2, §3, §4

bacterial biofilms = test: Bacterial biofilm assays (sustained inhibition and/or disruption); type: cell-based, Staphylococcus aureus; conditions: individually, about 0.1 to about 5.0% weight to volume (cystathionine 0.2%); at least one of the two assays
Description: as §1, §2, §5
as §6, with “nm. Eight or twelve replicates were performed for each tested condition and the reported values were normalized to the control (TSB-G media only).” for “nm.”
(§7) For the bacterial biofilm disruption assays, 80 μL of TSB-G was added to the plate, along with 1 μL of overnight cell culture. The cells were allowed to adhere to the plate for 60 minutes at 37° C. without shaking. The media was carefully aspirated and 80 μL of TSB-G was added to the plate. The plate was further incubated for 24 hours at 37° C. without shaking. Media was carefully aspirated from the mature biofilm and 80 μL of TSB-G, or TSB-G supplemented with the amino acid to be tested, was gently added to the plate. The plate was further incubated for 24 hours at 37° C. without shaking. Media was aspirated and the biofilm was measured for bacterial cell concentration by optical density at 600 nm. Twelve replicates were performed for each tested condition and the reported values were normalized to the control (TSB-G media only).

C. albicans biofilm [3] = test: Fungal biofilm inhibition assay; type: cell-based, Candida albicans; conditions: sustained inhibition assay, 1% amino acid, p≤0.001
Description: as §1, §2, §3

S. aureus biofilm [4] = test: Bacterial biofilm disruption assay; type: cell-based; conditions: Staphylococcus aureus, read-out: Reduce B Biofilm
Description: as §1, §2, §5, §7

C. albicans biofilm [5] = test: Fungal biofilm disruption assay; type: cell-based, Candida albicans; conditions: 1% amino acid, p≤0.001
Description: as §1, §2, §4

[6] = test system: bacteria (S. aureus) biofilm and fungal (C. albicans) biofilm; test: Disruption biofilm assay, bacterial and fungal together (Table D: Both/Neutral); type: cell-based, Staphylococcus aureus; Candida albicans; conditions: 1% amino acid
Description: as §1, §2
as §4, with “Twelve replicates were performed for each tested condition and the reported values are normalized to the control (RPMI-1640 media only).” left out
For the bacterial biofilm disruption assays, 80 μL of TSB-G was added to the plate, along with 1 μL of overnight cell culture. […] Media was aspirated and the biofilm was measured for bacterial cell concentration by optical density at 600 nm. […]

[7] = test system: bacteria (S. aureus) biofilm and fungal (C. albicans) biofilm; test: Sustained inhibition biofilm assay, bacterial and fungal together (Table C: Both/Neutral); type: cell-based, Staphylococcus aureus; Candida albicans; conditions: 1% amino acid
Description: as §1, §2
Fungal strains were streaked on Yeast Peptone Dextrose (YPD) agar plates and incubated at 30° C. for 48 hours. A single colony from each strain to be tested was inoculated into YPD broth and grown for 12 hours, at 30° C., shaking at 225 rpm. For the fungal biofilm inhibition assay, 1 μl of saturated overnight cell culture was added to either 80 μL of RPMI-1640 or RPMI-1640 supplemented with the amino acid compound solution to be tested, in a 384-well plate. The cells were allowed to adhere to the plate for 90 minutes at 37° C. with shaking (350 rpm). […] Media was carefully aspirated and the biofilm was measured for fungal cell concentration by optical density at 600 nm. […]
For the bacterial biofilm inhibition assays, 1 μL of saturated overnight cell culture was added to either 80 μL of TSB-G, or TSB-G supplemented with the amino acid compound solution to be tested, in a 384-well plate. […] Media was carefully aspirated and the biofilm was measured for bacterial cell concentration by optical density at 600 nm. […]

S. aureus biofilm [8] = test: Bacterial biofilm inhibition assay; type: cell-based, Staphylococcus aureus; conditions: sustained inhibition assay; S. aureus; 1% amino acid; p≤0.001
Description: as §1, §2, §5
as §6, with “nm. Eight or twelve replicates were performed for each tested condition and the reported values were normalized to the control (TSB-G media only).” for “nm.”

[9] = disruption assay, S. aureus, 1% amino acid, p≤0.001

Cn1cnc(C[C@H](N)C(=O)O)c1 [1-Methylhistidine, 1-methyl-L-histidine]
solubility (in words) [1]: limited solubility
neutral, effect on bacterial or fungal biofilms ([2]; both assays (sustained inhibition and disruption)): no effect on bacterial or fungal biofilms

Cn1cncc1C[C@H](N)C(=O)O [3-Methylhistidine, 3-methyl-L-histidine]
support (improve) fungal biofilm growth (fungal biofilms): support (improve) fungal biofilm growth
anti-biofilm properties against bacterial biofilms (bacterial biofilms): anti-biofilm properties against bacterial biofilms
Promote F Biofilm (C. albicans biofilm [3]): • (a single dot (●) signifies an effect in a range of about 10 to about 30% change)
inhibition at 1 % (S. aureus biofilm [4]; [9]): 10 to 30%
Promote F Biofilm (C. albicans biofilm [5]): • (a single dot (●) signifies an effect in a range of about 10 to about 30% change)

N[C@@H](CC(=O)O)C(=O)O [Aspartic Acid, L-aspartic acid]
Reduce Both [6]: •• (two dots (●●) signifies an effect of greater than 30% change)
effect on bacterial and fungal biofilm (in words) [2]: very active against biofilm
Reduce Both [7]: •• (two dots (●●) signifies an effect of greater than 30% change)
Reduce F Biofilm (C. albicans biofilm [3]): •• (two dots (●●) signifies an effect of greater than 30% change)
inhibition at 1 % (S. aureus biofilm [4]; [9]): > 30%
Reduce B Biofilm (S. aureus biofilm [8]): •• (two dots (●●) signifies an effect of greater than 30% change)
Reduce F Biofilm (C. albicans biofilm [5]): •• (two dots (●●) signifies an effect of greater than 30% change)

N[C@@H](CCSC[C@H](N)C(=O)O)C(=O)O [Cystathionine, L-cystathionine]
solubility (in words) [1]: limited solubility
anti-biofilm properties against bacterial biofilms (bacterial biofilms): anti-biofilm properties against bacterial biofilms
inhibition at 0.2 % (S. aureus biofilm [4]; disruption assay, S. aureus, 0.2% amino acid): 10 to 30%

N[C@@H](CS)C(=O)O [Cysteine, L-cysteine]
Reduce Both [6]: •• (two dots (●●) signifies an effect of greater than 30% change)
Reduce Both [7]: •• (two dots (●●) signifies an effect of greater than 30% change)
Reduce F Biofilm (C. albicans biofilm [3]): •• (two dots (●●) signifies an effect of greater than 30% change)
inhibition at 1 % (S. aureus biofilm [4]; [9]): > 30%
Reduce B Biofilm (S. aureus biofilm [8]): •• (two dots (●●) signifies an effect of greater than 30% change)
Reduce F Biofilm (C. albicans biofilm [5]): •• (two dots (●●) signifies an effect of greater than 30% change)

NCCO [Ethanolamine, ethanolamine]
anti-biofilm properties against fungal biofilms (fungal biofilms): anti-biofilm properties against fungal biofilms
anti-biofilm properties against bacterial biofilms (bacterial biofilms): anti-biofilm properties against bacterial biofilms
Reduce F Biofilm (C. albicans biofilm [3]): • (a single dot (●) signifies an effect in a range of about 10 to about 30% change)

N[C@@H](CCC(=O)O)C(=O)O [Glutamic Acid, L-glutamic acid]
Reduce Both [6]: •• (two dots (●●) signifies an effect of greater than 30% change)
effect on bacterial and fungal biofilm (in words) [2]: very active against biofilm
Reduce Both [7]: •• (two dots (●●) signifies an effect of greater than 30% change)
Reduce F Biofilm (C. albicans biofilm [3]): •• (two dots (●●) signifies an effect of greater than 30% change)
inhibition at 1 % (S. aureus biofilm [4]; [9]): > 30%
Reduce B Biofilm (S. aureus biofilm [8]): •• (two dots (●●) signifies an effect of greater than 30% change)
Reduce F Biofilm (C. albicans biofilm [5]): •• (two dots (●●) signifies an effect of greater than 30% change)

O=C(O)[C@@H]1C[C@@H](O)CN1 [Hydroxyproline, Trans-4-hydroxy-L-proline]
anti-biofilm properties against fungal biofilms (fungal biofilms): anti-biofilm properties against fungal biofilms
anti-biofilm properties against bacterial biofilms (bacterial biofilms): anti-biofilm properties against bacterial biofilms
Reduce F Biofilm (C. albicans biofilm [3]): • (a single dot (●) signifies an effect in a range of about 10 to about 30% change)
inhibition at 1 % (S. aureus biofilm [4]): 10 to 30%
Reduce B Biofilm (S. aureus biofilm [8]): • (a single dot (●) signifies an effect in a range of about 10 to about 30% change)

N[C@@H](COP(=O)(O)O)C(=O)O [Phosphoserine, O-phospho-L-serine]
anti-biofilm properties against fungal biofilms (fungal biofilms): anti-biofilm properties against fungal biofilms
anti-biofilm properties against bacterial biofilms (bacterial biofilms): anti-biofilm properties against bacterial biofilms
inhibition at 1 % (S. aureus biofilm [4]; [9]): 10 to 30%
Reduce F Biofilm (C. albicans biofilm [5]): • (a single dot (●) signifies an effect in a range of about 10 to about 30% change)

CC(C)[C@H](N)C(=O)O [Valine, L-valine]
support (improve) fungal biofilm growth (fungal biofilms): support (improve) fungal biofilm growth
effect on bacterial and fungal biofilm (in words) [2]: promote bacterial and fungal biofilm
Promote F Biofilm (C. albicans biofilm [3]): • (a single dot (●) signifies an effect in a range of about 10 to about 30% change)
Promote F Biofilm (C. albicans biofilm [5]): • (a single dot (●) signifies an effect in a range of about 10 to about 30% change)
